≈ marks a conversion by molar mass, not a printed value. Calls of active or inactive are those of the source. The rule behind the calls is not given here.
Each molecule was assayed on Mycobacterium tuberculosis (assay: Antimicrobial activity against Mycobacterium bovis BCG 1173P2 after 8 days). Conditions: variant bovis BCG.
Type: functional

**Q.** Which Activity does the source give for `O=c1[nH]c(=O)n([C@H]2C[C@H](O)[C@@H](CO)O2)cc1Br` [BROXURIDINE] here?
**A.** inactive

**Q.** With `NC(=O)CCCCc1ccc(Cn2cc(Br)c(=O)[nH]c2=O)cc1` as the molecule, how does the Activity read?
**A.** inactive

**Q.** Which Activity does the source give for `CCCCc1ccc(Cn2cc(Br)c(=O)[nH]c2=O)cc1` here?
**A.** inactive

**Q.** Which Activity does the source give for `Cc1cn(Cc2ccc(CCCCC(N)=O)cc2)c(=O)[nH]c1=O` here?
**A.** inactive

**Q.** With `CCCCCCc1ccc(Cn2cc(Br)c(=O)[nH]c2=O)cc1` as the molecule, how does the Activity read?
**A.** inactive

**Q.** For `NC(=O)CCCCCc1ccc(Cn2cc(Br)c(=O)[nH]c2=O)cc1`, which Activity is on record?
**A.** inactive

**Q.** With `CCCCc1ccc(Cn2cc(Cl)c(=O)[nH]c2=O)cc1` as the molecule, how does the Activity read?
**A.** inactive

**Q.** How did the Activity turn out when `Cc1cn([C@H]2C[C@H](O)[C@@H](CO)O2)c(=O)[nH]c1=O` [DOXRIBTIMINE] was run?
**A.** inactive

**Q.** How did the Activity turn out when `CCCCCCc1ccc(Cn2cc(Cl)c(=O)[nH]c2=O)cc1` was run?
**A.** inactive

**Q.** Which Activity does the source give for `Cc1cn(Cc2ccc(Br)cc2)c(=O)[nH]c1=O` here?
**A.** inactive

Same assay, conditions: variant bovis BCG, 192 h

**Q.** With `O=C(O)CCCc1ccc(Cn2ccc(=O)[nH]c2=O)cc1` as the molecule, how does the MIC50 read?
**A.** 225 µg/mL (≈ 780 µM)

**Q.** How did the MIC50 turn out when `Cc1cn(Cc2ccc(CCCCC(=O)O)cc2)c(=O)[nH]c1=O` was run?
**A.** 120 µg/mL (≈ 379 µM)

**Q.** `O=C(O)CCCCCc1ccc(Cn2cc(Cl)c(=O)[nH]c2=O)cc1` was tested. Which MIC50 did it give?
**A.** 125 µg/mL (≈ 356 µM)

**Q.** For `O=C(O)CCCCc1ccc(Cn2cc(Cl)c(=O)[nH]c2=O)cc1`, which MIC50 is on record?
**A.** 120 µg/mL (≈ 356 µM)

**Q.** `Cc1cn(Cc2ccc(CCCCCC(=O)O)cc2)c(=O)[nH]c1=O` was tested. Which MIC50 did it give?
**A.** 195 µg/mL (≈ 590 µM)

**Q.** With `Cc1cn(Cc2ccc(CCCCCC(N)=O)cc2)c(=O)[nH]c1=O` as the molecule, how does the MIC50 read?
**A.** 230 µg/mL (≈ 698 µM)

**Q.** Which MIC50 does the source give for `NC(=O)CCCc1ccc(Cn2ccc(=O)[nH]c2=O)cc1` here?
**A.** 270 µg/mL (≈ 940 µM)

**Q.** For `O=C(O)CCCc1ccc(Cn2cc(Cl)c(=O)[nH]c2=O)cc1`, which MIC50 is on record?
**A.** 45 µg/mL (≈ 139 µM)

**Q.** Which MIC50 does the source give for `O=C(O)CCCCc1ccc(Cn2cc(Br)c(=O)[nH]c2=O)cc1` here?
**A.** 100 µg/mL (≈ 262 µM)

**Q.** How did the MIC50 turn out when `Cc1cn(Cc2ccc(CCCCO)cc2)c(=O)[nH]c1=O` was run?
**A.** 365 µg/mL (≈ 1270 µM)

**Q.** With `COC(=O)CCCc1ccc(Cn2cc(Cl)c(=O)[nH]c2=O)cc1` as the molecule, how does the MIC50 read?
**A.** 260 µg/mL (≈ 772 µM)

**Q.** Which MIC50 does the source give for `NC(=O)CCCCCc1ccc(Cn2cc(Cl)c(=O)[nH]c2=O)cc1` here?
**A.** 288 µg/mL (≈ 823 µM)

**Q.** Which MIC50 does the source give for `O=C(O)CCCCCc1ccc(Cn2cc(Br)c(=O)[nH]c2=O)cc1` here?
**A.** 80 µg/mL (≈ 202 µM)

**Q.** For `NC(=O)CCCc1ccc(Cn2cc(Cl)c(=O)[nH]c2=O)cc1`, which MIC50 is on record?
**A.** 51 µg/mL (≈ 159 µM)

**Q.** For `Cc1cn(Cc2ccc(C#CCCCC(=O)O)cc2)c(=O)[nH]c1=O`, which MIC50 is on record?
**A.** 150 µg/mL (≈ 460 µM)

**Q.** Which MIC50 does the source give for `COC(=O)CCCc1ccc(Cn2cc(Br)c(=O)[nH]c2=O)cc1` here?
**A.** 180 µg/mL (≈ 472 µM)

**Q.** Which MIC50 does the source give for `NC(=O)CCCc1ccc(Cn2cc(Br)c(=O)[nH]c2=O)cc1` here?
**A.** 55 µg/mL (≈ 150 µM)

**Q.** `O=C(O)CCCc1ccc(Cn2cc(Br)c(=O)[nH]c2=O)cc1` was tested. Which MIC50 did it give?
**A.** 50 µg/mL (≈ 136 µM)
